Assay results as given in patent US4483989A, “Synthesis of pyrido[4,3-b]carbazole derivatives” (priority 1973, dated 1984).
Where “and” joins values, the source holds several entries; their conditions need not be identical. Identical values can stand only once. Like-named read-outs stand apart in the source and are kept apart here.

Columns and labels:
[1] = for DLo (I.P.): single i.p. injection; for LDo (highest non lethal dose / sublethal dose) for mice: route not given
From the text: (§1) The mice were randomized in each experimental series. A first routine experiment enable the death rate by toxicity to be determined and thus established the sublethal doses.
(§2) To evaluate the therapeutic activity of the compounds of the invention, doses of said compound were expressed basing them on the 30 days sublethal dose which was fixed at 1.

[2] = tested on: mouse L 1210 leukemia; assay: L1210 leukemia in mice: inoculum of 10^5 cells, single dose of compound 24 hours later; assay type: in vivo; conditions: for ILS (increased life span) % / % of killed cells / Mean survival in days for treated mice: inoculum 10^5 L1210 cells; for Cured animals: cured/total; for Criterion (i): ILS higher than 100%: intraperitoneal injection of 10^5 cells
From the text: The experimental tumor mouse L 1210 leukemia is commonly used to evaluate the effects of all the antitumor compounds now used in human therapeutics,as was described, for example, by C. C. ZUBROD in Proc. Nat. Acad. Sci. USA 69, 1972, pp. 1042-1047. This experimentally formed tumoral system permits very accurate quantitative evaluation of the activity of the compound tested and also, consequently, an objective comparison of the respective activities of various compounds, for example, according to the methods described by H. E. SKIPPER, F. M. SCHABEL Jr. and W. S. WILCOX in Cancer Chemiother. Rep. 1964, pp. 1-111 and 45, 1965, pp. 5-28.
as §1
According to the convention in force in this field, the animals which survived longer than 45 days after inoculation of tumoral cells were considered to be cured.
as §2
A--A tumoral inoculum of 10^5 L1210 leukemia cells was administered by the intraperitoneal way to twenty 2 to 3 months old DBA/2 strain female mice. 24 hours later, half of said mice received a single intraperitoneal injection of a variable dose of the compound to be tested and the same volume of solvent was administered to the other half of the mice by the same way; this latter half of the group of mice was therefore used as the control series. The mice were randomized in each experimental series.
Animals surviving for longer than 45 days were considered to be cured.

[3] = Autoradiography with 14C-labeled molecules (biodisponibility); assay type: in vivo
From the text: To understand the increase of the antitumor efficiency of the quaternarized compounds, several parameters of action of 9--OH--E and its methyl derivative have been comparatively established (see table III). Both compounds have about the same affinity for DNA. On a weight basis, the methyl compound is about 10 times more toxic in mice but also 10 times more efficient on leukemic mice (ILS). […] Therefore, there is no quantitative parallel between the in vivo and in vitro action of these drugs. The N-quaternization markedly changes the biodisponibility of the drugs as shown by autoradiography with ^14 C-labeled molecules. […] Several ellipticine derivatives are mutagenic on Ames Salmonella test; however, the quaternized derivatives lose this property. The microsomes, which are able to metabolize some ellipticines, increase the mutagenic ability of these drugs in vitro. […] Due to the curved shape of their molecules, their relative hydrophobicity, and the presence of a heterocyclic nitrogen, the ellipticines are good substrates for the cytochrome P450 system, provided that the 2-N remains uncharged.

[4] = Metabolic studies in mice
[5] = molecular target: DNA; assay: DNA affinity; assay type: binding
[6] = Solubility; assay type: physicochemical
[7] = tested on: mouse L 1210 leukemia; assay: L1210 leukemia in mice: inoculum of 10^5 cells, single dose of compound 24 hours later; assay type: in vivo; conditions: for ILS (increased life span) %: I.V., dose 1 (the sublethal dose), inoculum 10^5 L1210 cells; for Criterion (iv): persistence of the antileukemic action after an intravenous injection: L1210 in vivo
[8] = I.P., dose 0.002 of the sublethal dose
[9] = I.P., dose 0.005 of the sublethal dose
[10] = I.P., dose 0.01 of the sublethal dose
[11] = I.P., dose 0.02 of the sublethal dose
[12] = I.P., dose 0.1 of the sublethal dose
[13] = I.P., dose 0.2 of the sublethal dose
[14] = I.P., dose 1 (the sublethal dose)
[15] = I.P., dose 0.6 of the sublethal dose
[16] = I.P., dose 0.3 of the sublethal dose
[17] = I.P., dose 0.5 of the sublethal dose
[18] = I.P., dose 0.05 of the sublethal dose

Cc1c2cc[n+](CCN3CCCCC3)cc2c(C)c2c1[nH]c1ccc(O)cc12 [9-hydroxy-2(β-piperidino-ethyl)-ellipticinium acetate]
DLo (I.V.) ([1]; mice, I.V.): 10 mg/kg
DLo (I.P.) ([1]; mice): 50 mg/kg
ILS (increased life span) % [2, 8]: 113%
ILS (increased life span) % [2, 9]: 119%
ILS (increased life span) % [2, 10]: 124%
ILS (increased life span) % [2, 11]: 131%
ILS (increased life span) % [2, 12]: 181%
ILS (increased life span) % [2, 13]: 202%
ILS (increased life span) % [2, 14]: 171%
ILS (increased life span) % ([2]; I.V., dose 1 (the sublethal dose)): 131%
Chemotherapeutic index ([2]; L1210 in vivo): 100
Criterion (ii): occurrence of cured animals ([2]; L1210 in vivo): +
Increased life span (ILS) ([2]; L1210 in vivo, dose LDo /5): 102%
Cured animals ([2]; L1210 in vivo, dose LDo): 5/15
Criterion (i): ILS higher than 100% ([2]; L1210 in vivo): + (increased life span (ILS) higher than 100% after intraperitoneal injection of 10^5 cells)
Criterion (iv): persistence of the antileukemic action after an intravenous injection ([2]; L1210 in vivo, intravenous injection): +

Cc1c2ccncc2c(C)c2c1[nH]c1ccc(O)cc12 [Example 9-OH--E, 9-hydroxy-ellipticine, reference compound]
LDo (highest non lethal dose / sublethal dose) for mice [1]: 50 mg/kg
Elimination [3]: mostly eliminated through the bile into feces
Organ distribution (autoradiography) [3]: concentrates in several organs, including the lungs and the pancreas
Metabolism [4]: only glucuroconjugated
Kd [5]: 435 nM
ED (ILS 25%) ([2]; Mus musculus, L1210, ip, read-out: L 1210 cells: in vivo dose to reach ILS 25%): 10 mg/kg

Cc1c2c[n+](C)ccc2c(C)c2c1c1cc(O)ccc1n2C [9-hydroxy-2,6-dimethyl-ellipticinium acetate]
LDo (highest non lethal dose / sublethal dose) for mice [1]: 50 mg/kg
Therapeutic index ([2]; L1210): extremely high

Cc1c2c[n+](C)ccc2c(C)c2c1c1cc(O)ccc1n2C [9-hydroxy-6-methyl-ellipticinium iodomethylate]
Solubility [6]: much more soluble than the 9-hydroxy-ellipticinium iodomethylate

CC[n+]1ccc2c(C)c3c(c(C)c2c1)c1cc(O)ccc1n3C [9-hydroxy-6-methyl-2-ethyl-ellipticinium acetate]
DLo (I.V.) ([1]; mice, I.V.): 5 mg/kg
DLo (I.P.) ([1]; mice): 50 mg/kg
ILS (increased life span) % [7]: 115%
ILS (increased life span) % [2, 12]: 127%
ILS (increased life span) % [2, 13]: 178%
ILS (increased life span) % [2, 15]: 202%
Increased life span (ILS) ([2]; L1210 in vivo, dose ≈ LDo /2): 102%
Criterion (i): ILS higher than 100% ([2]; L1210 in vivo): + (increased life span (ILS) higher than 100% after intraperitoneal injection of 10^5 cells)

CCN(CC)CC[n+]1ccc2c(C)c3[nH]c4ccc(O)cc4c3c(C)c2c1 [9-hydroxy-2(β-diethylamino-ethyl)-ellipticinium acetate]
DLo (I.V.) ([1]; mice, I.V.): 5 mg/kg
DLo (I.P.) ([1]; mice): 50 mg/kg
ILS (increased life span) % [7]: 112%
ILS (increased life span) % [2, 8]: 119%
ILS (increased life span) % [2, 10]: 137%
ILS (increased life span) % [2, 11]: 139%
ILS (increased life span) % [2, 12]: 173%
ILS (increased life span) % [2, 13]: 151%
ILS (increased life span) % [2, 16]: 243%
ILS (increased life span) % [2, 17]: 196%
Chemotherapeutic index ([2]; L1210 in vivo): 100
Criterion (ii): occurrence of cured animals ([2]; L1210 in vivo): +
Cured animals ([2]; L1210 in vivo, dose LDo /2): 6/20

CC[n+]1ccc2c(C)c3[nH]c4ccc(O)cc4c3c(C)c2c1 [9-hydroxy-2-ethyl ellipticinium acetate, 9-hydroxy-2-ethyl-ellipticinium acetate]
DL100 (I.P.) ([1]; mice, I.P.): 100 mg/kg
DL 100 (I.V.) ([1]; mice, I.V.): 20 mg/kg
DLo (I.V.) ([1]; mice, I.V.): 15 mg/kg
DLo (I.P.) ([1]; mice): 50 mg/kg
ILS (increased life span) % [7]: 124%
Criterion (iv): persistence of the antileukemic action after an intravenous injection [7]: +
ILS (increased life span) % [2, 8]: 114%
ILS (increased life span) % [2, 10]: 122%
ILS (increased life span) % [2, 11]: 132%
ILS (increased life span) % [2, 18]: 132%
ILS (increased life span) % [2, 12]: 175%
ILS (increased life span) % [2, 13]: 219%
ILS (increased life span) % ([2]; I.P., dose 0.4 of the sublethal dose): 165%
ILS (increased life span) % [2, 15]: 188%
ILS (increased life span) % [2, 14]: 157%
ILS (increased life span) % ([2]; I.V., dose 0.33 of the sublethal dose): 118%
Chemotherapeutic index ([2]; L1210 in vivo): 75
Criterion (ii): occurrence of cured animals ([2]; L1210 in vivo): +
Increased life span (ILS) ([2]; L1210 in vivo, dose LDo /5): 119%
Cured animals ([2]; L1210 in vivo, dose LDo /5): 3/20
Criterion (i): ILS higher than 100% ([2]; L1210 in vivo): + (increased life span (ILS) higher than 100% after intraperitoneal injection of 10^5 cells)

9-hydroxy-2(β-diisopropylamino-ethyl)-ellipticiniu acetate
Criterion (iv): persistence of the antileukemic action after an intravenous injection [7]: +
% of killed cells [2, 12]: < 90%
ILS (increased life span) % [2, 12]: 110%
Mean survival in days for treated mice [2, 12]: 10.7 days
% of killed cells [2, 14]: < 90%
ILS (increased life span) % [2, 14]: 110%
Mean survival in days for treated mice [2, 14]: 10.9 days

CCn1c2ccc(O)cc2c2c(C)c3c[n+](CC)ccc3c(C)c21 [9-hydroxy-2,6-diethyl-ellipticinium acetate]
Solubility [6]: well water soluble
Solubility ([6]; water, read-out: Concentration of easily prepared aqueous solution): 4000 µg/mL

CC[n+]1ccc2c(C)c3[nH]c4ccc(OC(C)=O)cc4c3c(C)c2c1 [9-acetoxy-2-ethyl-ellipticinium acetate]
DLo (I.P.) ([1]; mice): 50 mg/kg
ILS (increased life span) % [2, 9]: 114%
ILS (increased life span) % [2, 10]: 134%
ILS (increased life span) % [2, 11]: 137%
ILS (increased life span) % [2, 12]: 157%
ILS (increased life span) % [2, 16]: 180%
ILS (increased life span) % [2, 15]: 191%
Chemotherapeutic index ([2]; L1210 in vivo): 100
Criterion (ii): occurrence of cured animals ([2]; L1210 in vivo): +
Cured animals ([2]; L1210 in vivo, dose LDo /3): 3/20

CC(=O)Oc1ccc2c(c1)c1c(C)c3c[n+](C)ccc3c(C)c1n2C [9-acetoxy-2,6-dimethyl-ellipticinium acetate]
LDo (highest non lethal dose / sublethal dose) for mice [1]: 50 mg/kg
Antitumoral activity on L1210 leukemia (comparison in words) ([2]; mouse, in vivo): comparable with that of the 9-hydroxy-2,6-dimethyl-ellipticinium acetate

Cc1c2cc[n+](CCO)cc2c(C)c2c1[nH]c1ccc(O)cc12 [9-hydroxy-2-hydroxyethyl-ellipticinium acetate]
DLo (I.V.) ([1]; mice, I.V.): 20 mg/kg
DLo (I.P.) ([1]; mice): 10 mg/kg
ILS (increased life span) % [7]: 146%
Criterion (iv): persistence of the antileukemic action after an intravenous injection [7]: +
ILS (increased life span) % [2, 10]: 115%
ILS (increased life span) % [2, 18]: 133%
ILS (increased life span) % [2, 12]: 159% and 151%
ILS (increased life span) % [2, 17]: 217%
ILS (increased life span) % [2, 14]: 197%
ILS (increased life span) % ([2]; I.P., dose 1.5 of the sublethal dose): 282%
ILS (increased life span) % ([2]; I.V., dose 0.25 of the sublethal dose): 121%
ILS (increased life span) % ([2]; I.V., dose 0.5 of the sublethal dose): 140%
ILS (increased life span) % ([2]; I.V., dose 2 × 0.5 of the sublethal dose): 142%
ILS (increased life span) % ([2]; I.V., dose 3 × 0.25 of the sublethal dose): 125%
Criterion (ii): occurrence of cured animals ([2]; L1210 in vivo): +
Increased life span (ILS) ([2]; L1210 in vivo, dose LDo /2): 117%
Cured animals ([2]; L1210 in vivo, dose LDo /2): 2/15
Criterion (i): ILS higher than 100% ([2]; L1210 in vivo): + (increased life span (ILS) higher than 100% after intraperitoneal injection of 10^5 cells)

Cc1c2ccncc2c(C)c2c1[nH]c1ccccc12 [ellipticine]
Metabolism [4]: hydroxylated in the 9-position and then glucuroconjugated
